# Test results as given in patent publication US20110028554A1, “PHARMACEUTICAL COMPOSITIONS COMPRISING DIIODOTHYRONINE AND THEIR THERAPEUTIC USE” (UNIVERSITE JOSEPH FOURIER, priority 2007, published 2011).
# Entries after “also recorded” stand apart in the source; their conditions may differ.
# What was measured:
# [1] = Growth rate (body weight) of Wistar rats with subcutaneous continuous-release pellet; format: in vivo
# Protocol: (§1) Adult male rat bred in the animal room facilities of Laboratory of Fundamental and Applied. Bioenergetics (Wistar strain) or purchased from Charles-River Laboratories, Domaine des oncins, L'ARBRESLE France [(genetically obese normoglycemic (Zucker or Fa/Fa) or diabetic (ZDF)] were caged individually in stainless steel hanging cages and maintained in a 22° C., 50±10% relative humidity and 12 h:12 h light:dark environment. All animals were fed ad libitum with a standard rat chow (Safe A04, Villemoisson, France) and tap water. Body mass and food intake were recorded twice/thrice a week and fresh food was provided, at the same time to ensure minimal disturbance to the animals' food, behavior.
# (§2) Eight-week old rats (300 g±10 g) were anesthetized by simultaneous intraperitoneal injection of diazepam 4 mg/kg and ketamine 100 mg/kg. In order to maintain body temperature during the surgery (10 min), animals were placed on a warm blanket. After interscapular shaving, a small incision of 0.5 cm of the skin allows the subcutaneous implantation of a small pellet (containing rT3 or 3′,3-T2) with a 10-gauge precision trochar. The pellets, manufactured by Innovative Research of America (Sarasota, Fla., USA) are constituted of a biodegradable matrix that effectively and continuously release the active product in the animal.
# (§3) 3-5 diiodothyronine (3-5 T2) or 3-3′diiodothyronine (3-3′ T2) were used at different doses (5, 0.5, or 0.1 mg/pellet) were implanted in order to provide a continuous and constant drug delivery over 60 days (which represents 25 μg, 2.5 μg or 0.5 μg/day/100 g BW).
# [2] = Body composition of genetically obese Zucker rats; format: in vivo, Zucker (Fa/Fa) rats; conditions: FIG. 9, high dosage 25 μg/100 g BW
# From the text: At the end of the experimental period, animals were sacrificed by decapitation, in order to avoid the well-known effects of general anesthetics on mitochondrial metabolism. Blood, samples were immediately collected and plasma was frozen for subsequent determination of serum metabolites and hormones. Liver, muscles and fat depots were quickly excised and weighed. Liver median lobe was rapidly freeze-clamped. Muscles (plantaris, soleus and gastrocnemius) were frozen in isopentane precooled in liquid nitrogen. Mesenteric fat consisted, of adipose tissue surrounding the gastro-intestinal tract from the gastro-oesophageal sphincter to the end of the rectum with special care taken in distinguishing and removing the pancreas. Retroperitoneal fat pad was taken as the distinct depot behind each kidney along the lumbar muscles. Epididymal fat consisted, of adipose tissue on top of the epididymis. For subcutaneous depot measurement, a rectangular piece of skin was taken on the right side of each animal from the median line of the abdomen between the spine and the right hip to the first rib. Interscapular brown adipose tissue was removed and dissected free from adjacent muscles and white adipose tissue. The heart ventricles, the right kidney and the spleen were also excised, weighed and frozen.
# [3] = Body weight, adipose and lean tissue weight and core temperature in ZDF rats; format: in vivo, Zucker Diabetic fatty (ZDF) rats; conditions: high dose 25 μg/100 g BW
# Protocol: as §1, §2, §3
# [4] = normal rats, high-fat diet, daily peritoneal injection; cited from earlier work
smiles,measurement,setting,value
"N[C@@H](Cc1cc(I)c(Oc2ccc(O)cc2)c(I)c1)C(=O)O [3,5-T2, 3,5-diiodothyronine]",Growth rate (body weight gain) vs placebo,[1]; high dosage 25 μg/100 g BW,did not show similar weight gain; also recorded: a biphasic curve was observed with a weight gain between the 10th and the 15th day
same,Growth rate (body weight gain) vs placebo,[1]; low dosage 2.5 μg/100 g BW,the body mass did not change
same,"Absolute values of fat deposit, all localizations, vs placebo",[2],significantly lower
same,Brown adipose tissue vs placebo,[2],significantly increased
same,Muscle mass vs placebo,[2],not affected
same,Fat mass gain vs placebo,[3]; 4 weeks,less
same,Lean body mass increase vs placebo,[3]; 4 weeks,higher
same,Core temperature vs placebo,[3]; 15 days,higher as compared to placebo
same,Fat deposit vs untreated rats,[4],less fat deposit
same,Weight gain vs untreated rats,[4],gained less weight
